≈ marks a conversion by molar mass, not a printed value. Values belong to the compound of their own block, whether it stands above or below them.
What was measured:
[1] = Drug loading of HEMA-PC:HEMA:MMA:MBA crosslinked membrane; format: physicochemical; conditions: HEMA-PC:HEMA:MMA:MBA copolymer swollen in aqueous drug solution, room temperature, over night
Source text: The polymers including MBA were polymerised in situ to form crosslinked membranes. […] The crosslinked polymers were used to form “infinite slabs” type membranes, to simulate the coating on a stent. […] The loaded levels were established to be the following: […]

[2] = cited from earlier work
[3] = Aspirin loading and release, pre-coated stents; format: physicochemical; conditions: for aspirin loaded: 15 mm stent, one hour, room temperature
Source text: Aspirin has anti platelet activity, which may be useful delivered locally from a stent. […] The solutions were used to load 15 mm stents having coatings produced according to Reference Example 1 (interior wall coating thickness around 350 nanometers, exterior wall coating thickness around 1400 nanometers). The stents were immersed in the aspirin solutions at room temperature for a period of one hour. The stent was removed from the solution, excess solution removed by gentle dabbing with absorbent tissue. Aspirin loading levels were determined by extracting the aspirin into 3 ml ethanol.

[4] = Etoposide/polymer premix coated stents, loading and release; format: physicochemical
Protocol: In this example, rather than precoating the polymer according to reference Example 1, followed by loading of drug, a premix of drug and crosslinkable polymer is formed and coated onto a stent. The crosslinkable polymer is identical to that used in Reference Example 1, 0.932 g polymer being dissolved into a 1:1 ethanol:water (by volume) mixture (50 ml). […] The coated stents were cured overnight at a temperature in the range 50 to 70 C.
The amount of drug loaded into the stents was determined by elution into an ethanol:water 50:50 (volume) mixture. […] The amount of etoposide eluted into ethanol:water is in this range.
The release rate, from the results, for the stent coated with a polymer crosslinked in the presence of drug indicate that the release of drug may not be slowed down as compared to the alternative system, where precoated stents are contacted with a solution of drug.

[5] = Ex vivo human saphenous vein model, angiopeptin loaded stents
Protocol: More extensive work was conducted on angiopeptin loaded stents, to mimic the in vivo environment. The further examples use an ex vivo human saphenous vein model (as described by Armstrong, J. et al 1998. A purfused organ culture model to investigate drug release from coronary stents, Northern General Hospital, Sheffield (in press). The stents (produced as in Reference Example 1 below) were loaded using aqueous solutions of angiopeptin labeled with ^125I by the chloramine T method, into which the stent was dipped for half an hour at 37 C. The loaded stents were then allowed to air dry for one hour. Stents were in inserted into the vein, expanded by balloon catheter, washed in 10 ml culture medium for 10 s then placed in the purpose-built organ culture chamber bathed in 30 ml culture medium. The chamber was then connected to a circuit and 100 ml culture medium (HEPES-buffered RPMI 1640 culture medium (LIFE) supplemented with penicillin ([…]) streptomycin (100 units/ml) and glutamine (2 mM)) at 70 ml/min, then removed after 1 hour or 24 hours. The stent was subsequently examined to determine the proportion of angiopeptin which has eluted, whilst the vessel immediately surrounding the stent was investigated to determine the proportion of eluted drug found in the vessel. The culture medium was also analysed as was the explanted stent for radio activity.

[6] = In vivo porcine coronary artery model, angiopeptin loaded stents
Protocol: Further work was conducted to investigate the ability of the angiopeptin loaded stents to deliver angiopeptin tissue in an in vivo, in a porcine coronary artery model. […] The levels of angiopeptin remaining in the arterial wall immediately surrounding the stent was determined as well as the level recovered in blood and urine.

[7] = Roxithromycin loading and release, pre-coated stents; format: physicochemical
Protocol: Stents coated with polymer according to Reference Example 1 (15 mm) were loaded with roxithromycin from 5 g/l and 10 g/l solutions in ethanol or in ethanol:water 50:50 mixture. The level of loading of drug onto the stent was determined by elution from the stent into ethanol. […] The average loading for the 5 g/l solution was 58 μg per stent, whilst the 10 g/l solutions lead to loadings of around 70 μg for both solvent systems.
Stents loaded from the 10 g/l ethanolic solutions were subsequently contacted with phosphate buffered saline under gentle agitation and the release rate determined. […] The test was continued up to 48 hours, after which time 5 to 10% of roxithromycin remains in the coating.

[8] = Vitamin B12 loading of MBA-crosslinked HEMA-PC:LM polymers; format: physicochemical
Protocol: Polymers based on HEMA-PC:LM 1:2 with varying degrees of MBA crosslinker were tested to determine the effect of crosslinker on release of vitamin B12. The polymers were also tested for their water content when swollen to equilibrium in water at 37° C. The loading levels of vitamin B12 are recorded in table 2 below.
Also recorded in table 2 are similar results for MBA crosslinked copolymers based upon 1:1 copolymers of HEMA-PC and LM.

[9] = Taxol loading of cross-linked polymer discs; format: physicochemical
Protocol: Polymers of the same compositions as used in example 8 are tested for taxol (paclitaxel) loading. Twenty discs were cut out of each membrane of polymer, placed on pieces of PTFE in petri dishes and dried in an oven at 60° C. for an hour. When cool the discs were placed into a solution of taxol and allowed to swell in a water bath at 37° C. for half an hour. The taxol solution was decanted off, the discs labelled and placed on the PTFE and allowed to air dry. The discs were then tested for determining total loadings.

[10] = Dexamethasone phosphate and dexamethasone loading and elution, pre-coated stents; conditions: for loading per stent: 20 C., 30 minutes

Compound: rhodamine
- Loading (mg/g polymer) [1]: 85 mg/g polymer

Compound: CO[C@H]1C[C@@H]2CC[C@@H](C)[C@@](O)(O2)C(=O)C(=O)N2CCCC[C@H]2C(=O)O[C@H]([C@H](C)C[C@@H]2CC[C@@H](O)[C@H](OC)C2)CC(=O)[C@H](C)/C=C(\C)[C@@H](O)[C@@H](OC)C(=O)[C@H](C)C[C@H](C)/C=C/C=C/C=C/1C [Rapamycin]
- solubility in water [2]: 5 µg/mL (≈ 5.47 µM)

Compound: CC(C)[C@@H]1NC(=O)[C@H](CCCCN)NC(=O)[C@@H](Cc2c[nH]c3ccccc23)NC(=O)[C@H](Cc2ccc(O)cc2)NC(=O)[C@@H](NC(=O)[C@H](N)Cc2ccc3ccccc3c2)CSSC[C@@H](C(=O)N[C@H](C(N)=O)[C@@H](C)O)NC1=O [angiopeptin]
- share of angiopeptin eluted from stent ([5]; after 1 hour): 93%
- share of eluted drug in the surrounding vessel ([5]; after 1 hour): 13.9%
- share of angiopeptin eluted from stent ([5]; after 24 hours): 97%
- share of eluted drug remaining in the vessel ([5]; after 24 hours): 7.4%
- share of detected angiopeptin located in tissue other than the heart ([6]; 1 to 28 days): less than 1%
- angiopeptin in blood ([6]; after 5 min): 0.08 µg/mL
- angiopeptin in urine ([6]; after 1 hour): 0.29 µg/mL
- share of angiopeptin remaining on the stent ([6]; after 1 hour): 9%
- angiopeptin in blood ([6]; after 24 hours): around 0.01 μg/ml
- share of angiopeptin remaining on the stent ([6]; after 24 hours): 4%
- share of angiopeptin remaining on the stent ([6]; after 7 days): 1.5%
- angiopeptin in urine ([6]; after 28 days): 0.01 µg/mL
- angiopeptin in blood compared with 5 min ([6]; after one hour): about the same
- level of angiopeptin in tissue ([6]; arterial wall surrounding the stent, after 24 hours): around 400 pg/ml
- angiopeptin in blood ([6]; at 7 to 28 days): No angiopeptin could be found
- share of released angiopeptin localised in the left anterior descending coronary artery ([6]; at 1 hour): 84%
- level of angiopeptin in tissue ([6]; at 7 days): around 360 pg/ml
- level of angiopeptin in tissue ([6]; at 28 days): around 200 pg/ml

Compound: CC[C@H]1OC(=O)[C@H](C)[C@@H](O[C@H]2C[C@@](C)(OC)[C@@H](O)[C@H](C)O2)[C@H](C)[C@@H](O[C@@H]2O[C@H](C)C[C@H](N(C)C)[C@H]2O)[C@](C)(O)C[C@@H](C)/C(=N\OCOCCOC)[C@H](C)[C@@H](O)[C@]1(C)O [roxithromycin, Roxithromycin]
- solubility in water [2]: substantially insoluble in water
- average loading ([7]; 15 mm stent, 5 g/l solution): 58 μg per stent
- loading ([7]; 15 mm stent, 10 g/l solutions, ethanol and ethanol:water 50:50): around 70 μg
- share of compound released ([7]; PBS, gentle agitation, after 24 hours, loaded from 10 g/l ethanolic solution): around half

Compound: vitamin B12
- Loading (mg/g polymer) [1]: 40 mg/g polymer
- Vitamin B12 Load (mg/g polymer) ([8]; HEMA-PC:LM 1:1, crosslinker 0.28 mole %): 26.13 mg/g polymer
- Vitamin B12 Load (mg/g polymer) ([8]; HEMA-PC:LM 1:1, crosslinker 0.5 mole %): 19.83 mg/g polymer
- Vitamin B12 Load (mg/g polymer) ([8]; HEMA-PC:LM 1:1, crosslinker 1 mole %): 11.89 mg/g polymer
- Vitamin B12 Load (mg/g polymer) ([8]; HEMA-PC:LM 1:1, crosslinker 2 mole %): 8.44 mg/g polymer
- Vitamin B12 Load (mg/g polymer) ([8]; HEMA-PC:LM 1:1, crosslinker 5 mole %): 4.94 mg/g polymer
- Vitamin B12 Load (mg/g polymer) ([8]; HEMA-PC:LM 1:2, crosslinker 0.28 mole %): 11.73 mg/g polymer
- Vitamin B12 Load (mg/g polymer) ([8]; HEMA-PC:LM 1:2, crosslinker 0.5 mole %): 10.68 mg/g polymer
- Vitamin B12 Load (mg/g polymer) ([8]; HEMA-PC:LM 1:2, crosslinker 1 mole %): 11.4 mg/g polymer
- Vitamin B12 Load (mg/g polymer) ([8]; HEMA-PC:LM 1:2, crosslinker 2 mole %): 4.66 mg/g polymer
- Vitamin B12 Load (mg/g polymer) ([8]; HEMA-PC:LM 1:2, crosslinker 5 mole %): 1.96 mg/g polymer
- Vitamin B12 Load (mg/g polymer) ([8]; HEMA-PC:LM 1:2, crosslinker 10 mole %): 0 mg/g polymer

Compound: C[C@@H]1C[C@H]2[C@@H]3CCC4=CC(=O)C=C[C@]4(C)[C@@]3(F)[C@@H](O)C[C@]2(C)[C@@]1(O)C(=O)CO [dexamethasone, Dexamethasone]
- solubility in water [2]: less water soluble than dexamethasone phosphate

Compound: C[C@@H]1C[C@H]2[C@@H]3CCC4=CC(=O)C=C[C@]4(C)[C@@]3(F)[C@@H](O)C[C@]2(C)[C@@]1(O)C(=O)COP(=O)(O)O [dexamethasone phosphate, Dexamethasone phosphate]
- loading per stent ([10]; 1.0 g/l in water): 9 μg per stent
- loading per stent ([10]; 2.0 g/l in water): 14 µg
- loading per stent ([10]; 5.0 g/l in water): 20 µg
- time by which effectively all the drug is released ([10]; elution test): ≤ 1 h

Second part, led by results:

- aspirin loaded ([3]; 10 g/l in ethanol): around 10 μg
- aspirin loaded ([3]; 40 g/l in ethanol): around 40 μg
- share of drug eluted ([3]; into phosphate buffered saline, after about 1 hour): around 90%
Compound: CC(=O)Oc1ccccc1C(=O)O [aspirin, Aspirin]
- solubility in water [2]: only partially soluble in water

- time at which release plateaued ([4]; into 5 ml phosphate buffered saline): around 5 minutes
- average etoposide loading ([4]; premix coated stent, eluted into ethanol:water 50:50): around 12 μg per stent
Compound: COc1cc([C@@H]2c3cc4c(cc3[C@@H](O[C@@H]3O[C@@H]5CO[C@@H](C)O[C@H]5[C@H](O)[C@H]3O)[C@H]3COC(=O)[C@H]23)OCO4)cc(OC)c1O [etoposide]
- solubility in water [2]: only slightly soluble in water

- Total Loading (μg per disc) ([9]; Series 1, 1st polymer (Table 4 HEMA-PC:LM:Hpm:TMSPM 13:39:15:5)): 35.2 μg per disc
- Total Loading (μg per disc) ([9]; Series 1, 2nd polymer (Table 4 53:39:15:5)): 80 μg per disc
- Total Loading (μg per disc) ([9]; Series 1, 3rd polymer (Table 4 13:55:15:5)): 15 μg per disc
- Total Loading (μg per disc) ([9]; Series 1, 4th polymer (Table 4 33:55:15:5)): 18.1 μg per disc
- Total Loading (μg per disc) ([9]; Series 2, 1st polymer (Table 4 13:39:15:9)): 51.7 μg per disc
- Total Loading (μg per disc) ([9]; Series 2, 2nd polymer (Table 4 33:39:15:9)): 57 μg per disc
- Total Loading (μg per disc) ([9]; Series 2, 3rd polymer (Table 4 13:55:15:9)): 18.6 μg per disc
- Total Loading (μg per disc) ([9]; Series 2, 4th polymer (Table 4 33:55:15:9)): 10 μg per disc
- Total Loading (μg per disc) ([9]; Series 3, 1st polymer (Table 4 13:39:35:5)): 55.2 μg per disc
- Total Loading (μg per disc) ([9]; Series 3, 2nd polymer (Table 4 33:39:35:5)): 11.2 μg per disc
- Total Loading (μg per disc) ([9]; Series 3, 3rd polymer (Table 4 13:55:35:5)): 5.4 μg per disc
- Total Loading (μg per disc) ([9]; Series 3, 4th polymer (Table 4 33:55:35:5)): 25.3 μg per disc
- Total Loading (μg per disc) ([9]; Series 4, 1st polymer (Table 4 13:39:35:9)): 23.8 μg per disc
- Total Loading (μg per disc) ([9]; Series 4, 2nd polymer (Table 4 33:39:35:9)): 60.5 μg per disc
- Total Loading (μg per disc) ([9]; Series 4, 3rd polymer (Table 4 13:55:35:9)): 24.3 μg per disc
- Total Loading (μg per disc) ([9]; Series 4, 4th polymer (Table 4 33:55:35:9)): 64 μg per disc
Compound: CC(=O)O[C@H]1C(=O)[C@@]2(C)[C@H]([C@H](OC(=O)c3ccccc3)[C@]3(O)C[C@H](OC(=O)[C@H](O)[C@@H](NC(=O)c4ccccc4)c4ccccc4)C(C)=C1C3(C)C)[C@]1(OC(C)=O)CO[C@@H]1C[C@@H]2O [taxol, paclitaxel]

From patent US7754272B2, “Local drug delivery” (Biocompatibles IK Limited, priority 1999, dated 2010)
